This is an account of results in patent US12653814B2, “Benzimidazolone-based cinnamamide derivative as TRPV1 antagonist and pharmaceutical composition for treatment or prevention of pain containing same as active ingredient” (JMACKEM CO., LTD, priority 2020, dated 2026).

Assay [1] addresses T1, human TRPV1 (hTRPV1) (Homo sapiens, UniProt Q8NER1).
T1 construct: host or cells: HEK (PrecisION hTRPV1-HEK recombinant cell line)
Nature of the assay: Evaluation of human pH inhibitory activity in hTRPV1-HEK recombinant cells. The assay is classed as cell-based. The conditions noted are these: inhibition of activation at final pH 6.0, test substance 3 μM. Here is the method:
Evaluation of Human pH Inhibitory Activity
PrecisION™ hTRPV1-HEK recombinant cells (CYL3063) were purchased from Millipore and used. After culturing the above cells under the conditions of 37° C. and 5% CO2, the cells were inoculated in a 96-well plate at the density of 5×10^4 cells/well, followed by culture for 16 hours. Then, the medium was removed and 100 uL of a staining solution was put into each well, followed by culture for 30 minutes under the conditions of 37° C. and 5% CO2. After 30 minutes, all of the existing staining solution was removed and replaced with 100 uL of HBSS. Thereafter, the cells were acclimatized to room temperature for 15 minutes, and the test substances (example compounds and comparative example compounds of the present invention) were added to each well, followed by culture at room temperature for 15 minutes. Then, the final pH was adjusted to 6.0 using MES, and fluorescence was measured (ex485/em535). In the pH assay, the efficacy of the drug was evaluated using BCTC as a TRPV1 antagonist.

The target in assay [2] is T1, human TRPV1 (hTRPV1). Nature of the assay: Ca2+ influx assay, antagonism against capsaicin in hTRPV1-HEK recombinant cells. The assay is classed as cell-based. The conditions noted are these: capsaicin 10 nM as activator, Fluo4-NW fluorescence, read-out: hTRPV1 IC50 [cap].

T1 sequence (Q8NER1 whole entry): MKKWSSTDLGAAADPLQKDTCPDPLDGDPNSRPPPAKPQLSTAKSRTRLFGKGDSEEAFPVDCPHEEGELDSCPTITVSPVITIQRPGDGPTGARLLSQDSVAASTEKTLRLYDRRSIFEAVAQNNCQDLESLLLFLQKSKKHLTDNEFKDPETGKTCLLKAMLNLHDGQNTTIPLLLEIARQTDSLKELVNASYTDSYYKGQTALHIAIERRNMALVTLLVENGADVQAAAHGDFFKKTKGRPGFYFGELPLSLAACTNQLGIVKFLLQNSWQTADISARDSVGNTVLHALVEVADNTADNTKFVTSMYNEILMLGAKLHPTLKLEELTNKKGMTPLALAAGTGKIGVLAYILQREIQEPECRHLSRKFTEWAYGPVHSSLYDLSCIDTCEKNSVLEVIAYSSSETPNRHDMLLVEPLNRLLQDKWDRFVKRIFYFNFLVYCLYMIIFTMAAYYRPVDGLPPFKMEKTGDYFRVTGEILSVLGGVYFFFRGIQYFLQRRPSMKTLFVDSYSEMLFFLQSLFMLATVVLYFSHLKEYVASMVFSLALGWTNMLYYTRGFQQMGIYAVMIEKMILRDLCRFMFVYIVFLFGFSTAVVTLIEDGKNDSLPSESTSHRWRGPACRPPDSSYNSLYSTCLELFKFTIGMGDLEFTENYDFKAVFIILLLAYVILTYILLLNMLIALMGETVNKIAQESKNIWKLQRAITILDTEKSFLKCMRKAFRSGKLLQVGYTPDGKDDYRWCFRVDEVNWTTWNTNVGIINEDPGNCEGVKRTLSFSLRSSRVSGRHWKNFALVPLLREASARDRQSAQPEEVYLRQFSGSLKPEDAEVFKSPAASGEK

For `CC(C)(C)c1ccc(/C=C/C(=O)Nc2cccc3[nH]c(=O)[nH]c23)c(OCC2CC2)c1` [Example 45, (E)-3-(4-(tert-butyl)-2-(cyclopropylmethoxy)phenyl)-N-(2-oxo-2,3-dihydro-1H-benzo[d]imidazol-4-yl)acrylamide], the “hTRPV1 pH (%, 3 μM)” value in assay [1] is on record as 48.71%. Further, the half-maximal inhibitory concentration (IC50) (commonly the concentration needed to halve the response being measured) in assay [2] was found to be 79.3 nM.

For `CC(C)(C)c1cc(/C=C/C(=O)Nc2cccc3[nH]c(=O)[nH]c23)n(-c2cccc(Cl)c2)n1` [Example 53, (E)-3-(3-(tert-butyl)-1-(3-chlorophenyl)-1H-pyrazol-5-yl)-N-(2-oxo-2,3-dihydro-1H-benzo[d]imidazol-4-yl)acrylamide], the “hTRPV1 pH (%, 3 μM)” value in assay [1] turned out to be 78.21%. Besides, the half-inhibitory concentration (IC50) in assay [2] came out at 79.8 nM.

On to `CC1CC1COc1nc(C(F)(F)F)ccc1/C=C/C(=O)Nc1cccc2[nH]c(=O)[nH]c12` (centres unmarked) [Example 16, (E)-3-(2-((2-methylcyclopropyl)methoxy)-6-(trifluoromethyl)pyridin-3-yl)-N-(2-oxo-2,3-dihydro-1H-benzo[d]imidazol-4-yl)acrylamide], for which, in assay [1], the “hTRPV1 pH (%, 3 μM)” value stood at 97.34%. Also, the IC50 in assay [2] stood at 86 nM.

`O=C(Nc1cccc2[nH]c(=O)[nH]c12)C1CC1c1cc(C(F)(F)F)nn1-c1cccc(Cl)c1` (centres unmarked) [Example 63, 2-(1-(3-chlorophenyl)-3-(trifluoromethyl)-1H-pyrazol-5-yl)-N-(2-oxo-2,3-dihydro-1H-benzo[d]imidazol-4-yl)cyclopropane-1-carboxamide]: in assay [1], the “hTRPV1 pH (%, 3 μM)” value was determined as 0.53%. The concentration for half-maximal inhibition (IC50) in assay [2] is 10.3 nM.

For the compound `O=C(/C=C/c1ccc(C(F)(F)F)nc1N1CCOCC1)Nc1cccc2[nH]c(=O)[nH]c12` [Example 5, (E)-3-(2-morpholino-6-(trifluoromethyl)pyridin-3-yl)-N-(2-oxo-2,3-dihydro-1H-benzo[d]imidazol-4-yl)acrylamide], in assay [1], the “hTRPV1 pH (%, 3 μM)” value is reported as 94.79%. Further, the 50% inhibitory concentration (IC50) in assay [2] was 16.3 nM.

Turning to `CC(C)c1cccc(-c2nc(C(F)(F)F)ccc2/C=C/C(=O)Nc2cccc3[nH]c(=O)[nH]c23)c1` [Example 32, (E)-3-(2-(3-isopropylphenyl)-6-(trifluoromethyl)pyridin-3-yl)-N-(2-oxo-2,3-dihydro-1H-benzo[d]imidazol-4-yl)acrylamide], in assay [1], the “hTRPV1 pH (%, 3 μM)” value was 67.88%. Also, the concentration for half-maximal inhibition (IC50) in assay [2] came out at 23.7 nM.

With `O=C(/C=C/c1ccc(C(F)(F)F)cc1OCC1CC1)Nc1cccc2[nH]c(=O)[nH]c12` [Example 43, (E)-3-(2-(cyclopropylmethoxy)-4-(trifluoromethyl)phenyl)-N-(2-oxo-2,3-dihydro-1H-benzo[d]imidazol-4-yl)acrylamide], the “hTRPV1 pH (%, 3 μM)” value in assay [1] was 87.68%. For the same compound, the IC50 in assay [2] amounted to 19.7 nM.
